Laboratory results taken from publication PMC9351465, “Mechanism-based heparanase inhibitors reduce cancer metastasis in vivo” (Proceedings of the National Academy of Sciences of the …, 2022).
“And” between values parts separate entries of the source, which are not always exact repeats. Equal values may be shown once.

Key:
CAG myeloma cancer cells = assay: CAG myeloma xenograft bone metastasis model (luciferase imaging); type: in vivo, mouse; settings: NOD/SCID mice
Excerpt: Finally, we examined a CAG myeloma xenograft model, which faithfully recapitulates the invasion of multiple myeloma to the bone marrow. We compared the efficacy of 2 to bortezomib, a proteasome inhibitor and standard treatment for multiple myeloma and lymphomas, and also explored the possibility of synergistic proteasomal and HPSE inhibitor treatment. In contrast to the single initial dose regimens used for B16 and 4T1, a continuous dosing regimen was used in this assay to gauge the efficacy of 2 over longer treatment periods. Following injection of luciferase expressing CAG cells, mice were treated with a course of 2 (300 nmol/day i.p.), bortezomib (0.5 mg/kg twice weekly i.p.), or a combination of both compounds. […]
Mice were sacrificed after 14 days and the lungs were dissected, photographed and evaluated for the number of metastatic foci/lung. […]
Bioluminescence imaging of lung metastases produced by luciferase-expressing 4T1 cells was carried out using a highly sensitive, cooled charge-coupled device camera assembled in a specimen box (IVIS; Xenogen Corp, Hopkinton, MA). […] The tumor burden was quantified using Living Image software (Xenogen) (12, 13). […]
CAG myeloma - Luciferase-labeled CAG human myeloma cells (3x106) were injected into the tail vein of NOD/SCID mice. […] Tumor burden was quantified using Living Image software. […]

U87 glioblastoma cells = assay: Matrigel invasion assay; type: cell-based, human; settings: 20 µM inhibitor, 4 h
Protocol: Preliminary in cellulo evaluations of our inhibitors’ effects on cancer aggression were conducted using a Matrigel invasion assay, which measures the ability of cells to migrate through transwell inserts coated with the ECM material Matrigel. Matrigel invasion by cells requires a broad complement of proteases and glycosidases, thereby mimicking some aspects of metastasis in vivo ([51]).
For HS-degradation assays, ECM coated dishes were incubated with 200 ng recombinant HPSE in 1 mL reaction mixture (10 mM buffer Phosphate-Citrate pH 6.0, 50 mM NaCl, 1 mM DTT, 1 mM CaCl2) containing HPSE inhibitors or DMSO control. Plates were incubated at 37°C for 5 h, then assay medium collected and applied to a 0.9×30 cm Sepharose 6B size exclusion column. The Sepharose 6B column was eluted with PBS, and 35S radioactivity of 0.2 mL fractions quantitated using a liquid scintillation analyzer (Packard BioScience) (11). […]
Cells in the upper chamber were separated by Matrigel from a lower chamber containing 600 µL DMEM, supplemented with 10% FBS. […] 10 randomly selected microscopic fields were recorded, and cell invasion calculated using ImageJ, by quantitating the percentage of the field stained by crystal violet. […]

human platelet HPSE = molecular target: T1, human platelet HPSE (Homo sapiens, UniProt Q9Y251); assay: cABPP of human platelet lysates, HPSE band
T1 sequence (Q9Y251 158-543 limits assumed): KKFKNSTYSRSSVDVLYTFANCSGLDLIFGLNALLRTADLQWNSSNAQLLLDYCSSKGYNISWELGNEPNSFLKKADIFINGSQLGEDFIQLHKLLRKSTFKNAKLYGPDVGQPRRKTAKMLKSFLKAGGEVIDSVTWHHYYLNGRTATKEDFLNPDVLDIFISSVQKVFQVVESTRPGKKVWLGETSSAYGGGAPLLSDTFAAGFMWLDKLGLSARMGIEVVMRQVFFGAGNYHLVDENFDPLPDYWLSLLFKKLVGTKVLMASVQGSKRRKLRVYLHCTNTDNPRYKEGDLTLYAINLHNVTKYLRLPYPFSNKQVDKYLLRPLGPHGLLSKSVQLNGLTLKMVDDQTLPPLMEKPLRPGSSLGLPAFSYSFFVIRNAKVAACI
T1 sequence (Q9Y251 36-109 limits assumed): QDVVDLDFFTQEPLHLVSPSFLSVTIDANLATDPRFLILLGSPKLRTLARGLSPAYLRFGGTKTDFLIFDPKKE

IC50 (human platelet HPSE; HPSE IC50, human platelet lysates, cABPP, n = 3): ~530 nM and 530 nM
SMILES: CC(=O)N[C@H]1[C@@H](O[C@H]2[C@H](O)[C@@H](O)[C@@H]3O[C@@H]3[C@@H]2C(=O)O)O[C@H](CO)[C@@H](O)[C@@H]1O [compound 2]
metastatic burden (bioluminescent flux) (CAG myeloma cancer cells; 2 300 nmol/day i.p., bortezomib 0.5 mg/kg twice weekly i.p., imaging over time): moderate reduction in metastatic burden
antimetastatic efficacy at 33 d timepoint (CAG myeloma cancer cells; continuous dosing, 33 d): somewhat reduced efficacy following prolonged treatment
Matrigel invasion (% field stained) (U87 glioblastoma cells): significantly reduced Matrigel invasion
selectivity of HPSE inhibition in platelet lysates (human platelet HPSE; human platelet lysates containing both HPSE and GUSB): highly selective inhibition of human platelet HPSE
